# Data as given in patent publication US20190204342A1, “METHODS AND USES OF MITOFUSINS” (NESTEC S.A., priority 2014, published 2019).
# Columns and labels:
# AMPK = AMPK activation in liver after metformin injection (western blot of markers CRTC2, elF2alpha, GAPDH); assay type: in vivo; details: metformin 125 mg/kg; livers taken 90 minutes later; high-fat diet; Mfn1 LKO vs control mice
# Description: 12 week old Control and Mfn1 LKO mice were fed for 8 weeks with a high-fat diet (D12492, Research Diets Inc., USA). Then, mice were fasted overnight and injected with either saline (as vehicle) or metformin (125 mg/kg). Mice were sacrificed 90 minutes later and livers were immediately extracted and frozen. Protein extracts were obtained and used for western blot analyses to test the markers of AMPK activation: CRTC2, elF2alpha and GAPDH.
# mitochondrial Complex I = experiment: Metformin inhibition of mitochondrial respiration (respirometry, metformin titrated); assay type: biochemical; details: liver mitochondria from WT and Mfn1 LKO mice, malate, glutamate, ADP
# Description: Freshly extracted mitochondria from WT and Mfn1LKO mice were homogenized in respiration medium and 2 mg of tissue were used for respirometry analyses. In them, complex I activity was stimulated by the addition of malate and glutamate. Then, ADP was added to achieve maximal coupled respiration and metformin was subsequently titrated.
# Freshly extracted mitochondria from WT and Mfn1 LKO mice were resuspended in respiration medium and 100 μg of protein were used for respirometry analyses. Complex I activity was stimulated by the addition of malate and glutamate. Then, ADP was added to achieve maximal coupled respiration and metformin was subsequently titrated.
# [1] = Hypoglycemic effect of metformin in high-fat diet fed control and Mfn1LKO mice (blood glucose); assay type: in vivo; details: metformin 125 mg/kg injected after overnight fast; 8 weeks high-fat diet; Mfn1LKO vs control mice
# Source text: 12 week old Control and Mfn1 LKO mice were fed for 8 weeks with a high-fat diet (D12492, Research Diets Inc., USA).
structure (smiles),measurement,setting,value
"CN(C)C(=N)N=C(N)N [metformin, Metformin]",AMPK activation (markers of AMPK activation),AMPK,enhanced AMPK activation
same,mitochondrial Complex I respiration inhibition,mitochondrial Complex I,inhibited more in the Mfn1 LKO mice than in the control mice
same,hypoglycemic effect (blood glucose levels),[1],enhanced in Mfn1LKO mice
